Assay results as given in patent EP3685668B1, “COMPOSITION COMPRISING ACIBENZOLAR-S-METHYL AS EFFECTIVE INGREDIENT FOR CONTROLLING BURSAPHELENCHUS XYLOPHILUS DISEASE AND METHOD FOR CONTROLLING BURSAPHELENCHUS XYLOPHILUS USING SAME” (Industry Foundation of Chonnam National University, priority 2017, dated 2019).

Legend:
Test in all cases: qRT-PCR expression of induced resistance gene in pine tree callus
Assay type in all cases: cell-based
PR_2 family = conditions: for Expression of induced resistance gene, PR_2 family: 24 hours
Method: (§1) For in vitro analysis of induced resistance, the expression of PR genes and other plant defense-related genes was determined, which are evolved in various defense mechanisms including induced resistance. The primers of sixteen induced resistance-related genes of pine tree used in this invention were listed in the below and elongation factor_1 alpha were used as a reference gene. [Table 4] The primer list of defense resistance-related genes
(§2) After the treatment with 200 µg / mℓ of candidates of the selected induced resistance material, expression of the induced resistance-related gene in pine callus was determined by qRT-PCR using the primer pairs of defense resistance-related genes in Table 4. As a candidate group of an induced resistance material in pine tree, acibenzolar-S-methyl (ASM), TDL (Tiadinil), ITL (Isotianil), PBZ (Probenzole), AZO (Azoxystrobin), VMA (Validamycin A), MeJA (Methyl jasmonate), BABA (DL-3-aminobutyric acid), 2,3-BDO (2,3-Butanediol), GABA (r-Aminobutyric acid), glucan (Glucan), ER (Ergosterol), and AZA (Azelaic acid) were used. For the in vitro analysis of the expression of induced resistance gene in pine callus, the selected induced resistance materials were applied with 500 µℓ of LM liquid medium on a surface of pine tree callus (100 mg) in 12-well microplate to give final concentration of 200 µg/mℓ. Then, the callus surface was sufficiently reacted for 24 hours with the candidate of pine tree induced resistance material by shaking at 50 rpm in a 25 °C shaking incubator under dark condition. RNAs were extracted from the callus after completion of the reaction with an induced resistance material, followed by synthesis of cDNAs. Then, by carrying out qRT-PCR, the expression of induced resistance genes was determined. [Table 5] Expression of induced resistance gene in pine tree callus by TDL, PBZ, ASM, ITL, AZO, VMA, glucan, and AZA
(§3) Based on the results of assay using young plants and gene expression by selected induce resistance materials, it seemed that acibenzolar-S-methyl had the most excellent effect. Thus, the following tests were carried out using acibenzolar-S-methyl only. Expression of the induced resistance genes at different culture time after the chemical treatment was examined. For the in vitro assay, LM medium containing pine tree callus was treated with acibenzolar-S-methyl at concentration of 200 µg / mℓ, followed by reaction for 1 day, 7 days, or 14 days in a 25°C shaking incubator under dark condition. RNAs were extracted from the callus after the reaction followed by synthesis of cDNAs. Then, by carrying out qRT-PCR, the expression of the induced resistance genes was determined. Depending on reaction time after the treatment, i.e., after 1 day, 7 days, or 14 days, the expression of the obtained induced resistance genes was examined. As a result of the in vitro callus assay depending on reaction time after the treatment with acibenzolar-S-methyl, the expression of the induced resistance-related genes is the highest at 1 day after the treatment with acibenzolar-S-methyl and gradually diminished over time, as it is shown in Table 7. In this regard, it is contemplated that the expression of genes acquired by acibenzolar-S-methyl is not maintained in highly expressed state until the pathogen invasion and just memorized with at minimum level so that the energy consumption by plant can be efficiently managed. [Table 7] Expression of induced resistance gene in pine tree callus by acibenzolar-S-methyl depending on reaction time
(§4) To have an in vitro assay according to different methods of treatment with acibenzolar-S-methyl, two separate treatment methods, i.e., surface treatment (spraying treatment) of pine tree callus and direct application of the induced resistance material to an LM medium containing pine tree callus, were performed. […]

Heat shock 70 = conditions: for Expression of induced resistance gene, Heat shock 70: 24 hours
Method: as §1, §2, §3, §4

PR_5 family = conditions: for Expression of induced resistance gene, PR_5 family: 24 hours
Method: as §1, §2, §3, §4

PR_10 family = conditions: for Expression of induced resistance gene, PR_10 family: 24 hours
Method: as §1, §2, §3, §4

PR_9 family = conditions: for Expression of induced resistance gene, PR_9 family: 24 hours
Method: as §1, §2, §3, §4

Hydroxyproline = conditions: for Expression of induced resistance gene, Hydroxyproline: 24 hours
Method: as §1, §2, §3, §4

Extensin = conditions: 200 µg/mℓ; for Expression of induced resistance gene, Extensin: 24 hours
Method: as §1, §2, §3, §4

[1] = 200 µg/mℓ, Direct supplying as a medium component
[2] = concentration series, 200 µg/mℓ

Structure (SMILES): CSC(=O)c1cccc2nnsc12 [ASM, acibenzolar-S-methyl]
- Expression of induced resistance gene, PR_2 family (PR_2 family; 200 µg/mℓ): 1.65
- Expression of induced resistance gene, PR_2 family (PR_2 family; [1]): 5.5
- Expression of induced resistance gene, PR_2 family (PR_2 family; 200 µg/mℓ, Spraying): 1.65
- Gene expression level, PR_2 family (PR_2 family; 200 µg/mℓ, After 1 day): 5.5
- Gene expression level, PR_2 family (PR_2 family; 200 µg/mℓ, After 7 days): 0.97
- Gene expression level, PR_2 family (PR_2 family; 200 µg/mℓ, After 14 days): 0.42
- Gene expression level, PR_2 family (PR_2 family; concentration series, 20 µg/mℓ): 2.694
- Gene expression level, PR_2 family (PR_2 family; [2]): 1.117
- Expression of induced resistance gene, Heat shock 70 (Heat shock 70; 200 µg/mℓ): 1.75
- Expression of induced resistance gene, Heat shock 70 (Heat shock 70; [1]): 10.06
- Expression of induced resistance gene, Heat shock 70 (Heat shock 70; 200 µg/mℓ, Spraying): 1.75
- Gene expression level, Heat shock 70 (Heat shock 70; 200 µg/mℓ, After 1 day): 2.27
- Gene expression level, Heat shock 70 (Heat shock 70; 200 µg/mℓ, After 7 days): 0.97
- Gene expression level, Heat shock 70 (Heat shock 70; 200 µg/mℓ, After 14 days): 0.77
- Gene expression level, Heat shock 70 (Heat shock 70; concentration series, 20 µg/mℓ): 23.26
- Gene expression level, Heat shock 70 (Heat shock 70; [2]): 53.45
- Expression of induced resistance gene, PR_5 family (PR_5 family; 200 µg/mℓ): 2.93
- Expression of induced resistance gene, PR_5 family (PR_5 family; [1]): 5.9
- Expression of induced resistance gene, PR_5 family (PR_5 family; 200 µg/mℓ, Spraying): 2.93
- Gene expression level, PR_5 family (PR_5 family; 200 µg/mℓ, After 1 day): 5.9
- Gene expression level, PR_5 family (PR_5 family; 200 µg/mℓ, After 7 days): 0.45
- Gene expression level, PR_5 family (PR_5 family; 200 µg/mℓ, After 14 days): 0.17
- Gene expression level, PR_5 family (PR_5 family; concentration series, 2 µg/mℓ): 4
- Gene expression level, PR_5 family (PR_5 family; concentration series, 20 µg/mℓ): 8.515
- Gene expression level, PR_5 family (PR_5 family; [2]): 2.809
- Expression of induced resistance gene, PR_10 family (PR_10 family; 200 µg/mℓ): 1.71
- Expression of induced resistance gene, PR_10 family (PR_10 family; [1]): 10.63
- Expression of induced resistance gene, PR_10 family (PR_10 family; 200 µg/mℓ, Spraying): 1.71
- Gene expression level, PR_10 family (PR_10 family; 200 µg/mℓ, After 1 day): 8.57
- Gene expression level, PR_10 family (PR_10 family; 200 µg/mℓ, After 7 days): 0.51
- Gene expression level, PR_10 family (PR_10 family; 200 µg/mℓ, After 14 days): 0.64
- Gene expression level, PR_10 family (PR_10 family; concentration series, 2 µg/mℓ): 0.8293
- Gene expression level, PR_10 family (PR_10 family; concentration series, 20 µg/mℓ): 1.11
- Gene expression level, PR_10 family (PR_10 family; [2]): 1.094
- Expression of induced resistance gene, PR_9 family (PR_9 family; 200 µg/mℓ): 2
- Expression of induced resistance gene, PR_9 family (PR_9 family; [1]): 8.57
- Expression of induced resistance gene, PR_9 family (PR_9 family; 200 µg/mℓ, Spraying): 2
- Gene expression level, PR_9 family (PR_9 family; 200 µg/mℓ, After 1 day): 1
- Gene expression level, PR_9 family (PR_9 family; 200 µg/mℓ, After 7 days): 1
- Gene expression level, PR_9 family (PR_9 family; 200 µg/mℓ, After 14 days): 1
- Gene expression level, PR_9 family (PR_9 family; concentration series, 2 µg/mℓ): 0.7526
- Gene expression level, PR_9 family (PR_9 family; concentration series, 20 µg/mℓ): 0.79
- Gene expression level, PR_9 family (PR_9 family; [2]): 0.9526
- Expression of induced resistance gene, Hydroxyproline (Hydroxyproline; 200 µg/mℓ): 1.79
- Expression of induced resistance gene, Hydroxyproline (Hydroxyproline; [1]): 7.89
- Expression of induced resistance gene, Hydroxyproline (Hydroxyproline; 200 µg/mℓ, Spraying): 1.79
- Gene expression level, Hydroxyproline (Hydroxyproline; 200 µg/mℓ, After 1 day): 10.06
- Gene expression level, Hydroxyproline (Hydroxyproline; 200 µg/mℓ, After 7 days): 1.2
- Gene expression level, Hydroxyproline (Hydroxyproline; 200 µg/mℓ, After 14 days): 0.32
- Gene expression level, Hydroxyproline (Hydroxyproline; concentration series, 2 µg/mℓ): 3.138
- Gene expression level, Hydroxyproline (Hydroxyproline; concentration series, 20 µg/mℓ): 4.438
- Gene expression level, Hydroxyproline (Hydroxyproline; [2]): 4.627
- Expression of induced resistance gene, Extensin (Extensin): 2.1
- Expression of induced resistance gene, Extensin (Extensin; Direct supplying as a medium component): 2.27
- Expression of induced resistance gene, Extensin (Extensin; Spraying): 2.1
- Gene expression level, Extensin (Extensin; After 1 day): 9.99
- Gene expression level, Extensin (Extensin; After 7 days): 1.23
- Gene expression level, Extensin (Extensin; After 14 days): 0.33
